Experimental data as given in PubChem BioAssay (NCI).
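Five compound concentrations were applied to cells in 96-well plates for 48 hours; endpoints were derived by simple linear interpolation of the resulting dose-response curve. TGI marks complete inhibition of growth.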

Legend:
Assay in all cases: NCI tumour cell line growth inhibition, 48 h
786-0 renal = system: 786-0 renal
A498 renal = system: A498 renal
A549 NSCLC = system: A549 NSCLC
ACHN renal = system: ACHN renal
BT-549 breast = system: BT-549 breast
CAKI-1 renal = system: CAKI-1 renal
CCRF-CEM leukemia = system: CCRF-CEM leukemia
COLO 205 colon = system: COLO 205 colon
DU-145 prostate = system: DU-145 prostate
EKVX NSCLC = system: EKVX NSCLC
HCC-2998 colon = system: HCC-2998 colon
HCT-116 colon = system: HCT-116 colon
HCT-15 colon = system: HCT-15 colon
HL-60(TB) leukemia = system: HL-60(TB) leukemia
HOP-62 NSCLC = system: HOP-62 NSCLC
HOP-92 NSCLC = system: HOP-92 NSCLC
HS 578T breast = system: HS 578T breast
HT29 colon = system: HT29 colon
IGROV1 ovarian = system: IGROV1 ovarian
K-562 leukemia = system: K-562 leukemia
KM12 colon = system: KM12 colon
LOX IMVI melanoma = system: LOX IMVI melanoma
M14 melanoma = system: M14 melanoma
MALME-3M melanoma = system: MALME-3M melanoma
MCF7 breast = system: MCF7 breast
MDA-MB-231 breast = system: MDA-MB-231 breast
MDA-MB-435 = system: MDA-MB-435
MDA-N = system: MDA-N
MOLT-4 leukemia = system: MOLT-4 leukemia
NCI-H226 lung = system: NCI-H226 lung
NCI-H23 lung = system: NCI-H23 lung
NCI-H460 lung = system: NCI-H460 lung
NCI-H522 lung = system: NCI-H522 lung
NCI/ADR-RES ovarian = system: NCI/ADR-RES ovarian
OVCAR-3 ovarian = system: OVCAR-3 ovarian
OVCAR-4 ovarian = system: OVCAR-4 ovarian
OVCAR-5 ovarian = system: OVCAR-5 ovarian
OVCAR-8 ovarian = system: OVCAR-8 ovarian
PC-3 prostate = system: PC-3 prostate
RPMI-8226 leukemia = system: RPMI-8226 leukemia
RXF 393 renal = system: RXF 393 renal
SF-268 CNS = system: SF-268 CNS
SF-295 CNS = system: SF-295 CNS
SF-539 CNS = system: SF-539 CNS
SK-MEL-2 melanoma = system: SK-MEL-2 melanoma
SK-MEL-28 melanoma = system: SK-MEL-28 melanoma
SK-MEL-5 melanoma = system: SK-MEL-5 melanoma
SK-OV-3 ovarian = system: SK-OV-3 ovarian
SN12C renal = system: SN12C renal
SNB-19 CNS = system: SNB-19 CNS
SNB-75 CNS = system: SNB-75 CNS
SR leukemia = system: SR leukemia
SW-620 colon = system: SW-620 colon
T-47D breast = system: T-47D breast
TK-10 renal = system: TK-10 renal
U251 CNS = system: U251 CNS
UACC-257 melanoma = system: UACC-257 melanoma
UACC-62 melanoma = system: UACC-62 melanoma
UO-31 renal = system: UO-31 renal

CC(C)OC(=O)c1ccc(CCc2cc(O)c(Br)cc2O)cc1
TGI (786-0 renal): 25.4 µM | TGI (A498 renal): 41.8 µM | TGI (A549 NSCLC): 44.8 µM | TGI (ACHN renal): 31.9 µM | TGI (BT-549 breast): 30 µM | TGI (CAKI-1 renal): 25 µM | TGI (CCRF-CEM leukemia): 14.3 µM | TGI (COLO 205 colon): 28.7 µM | TGI (DU-145 prostate): 28.6 µM | TGI (EKVX NSCLC): 29.4 µM | TGI (HCC-2998 colon): 29.6 µM | TGI (HCT-116 colon): 25.3 µM | TGI (HCT-15 colon): 14 µM | TGI (HL-60(TB) leukemia): 38.9 µM | TGI (HOP-62 NSCLC): 24.7 µM | TGI (HOP-92 NSCLC): 35.2 µM | TGI (HS 578T breast): 42.1 µM | TGI (HT29 colon): 37.4 µM | TGI (IGROV1 ovarian): 23.1 µM | TGI (K-562 leukemia): > 58.9 µM | TGI (KM12 colon): 18.1 µM | TGI (LOX IMVI melanoma): 20.8 µM | TGI (M14 melanoma): 29.9 µM | TGI (MALME-3M melanoma): 31.1 µM | TGI (MCF7 breast): 29.4 µM | TGI (MDA-MB-231 breast): 26.7 µM | TGI (MDA-MB-435): 20.8 µM | TGI (MDA-N): 24 µM | TGI (MOLT-4 leukemia): 52.1 µM | TGI (NCI-H226 lung): 39.8 µM | TGI (NCI-H23 lung): 22.8 µM | TGI (NCI-H460 lung): 34.5 µM | TGI (NCI-H522 lung): 23.8 µM | TGI (NCI/ADR-RES ovarian): 25.5 µM | TGI (OVCAR-3 ovarian): 19.5 µM | TGI (OVCAR-4 ovarian): 5.54 µM | TGI (OVCAR-5 ovarian): 31.8 µM | TGI (OVCAR-8 ovarian): 29.5 µM | TGI (PC-3 prostate): 19.2 µM | TGI (RPMI-8226 leukemia): 8.18 µM | TGI (RXF 393 renal): 28.3 µM | TGI (SF-268 CNS): 25.6 µM | TGI (SF-295 CNS): 32.3 µM | TGI (SF-539 CNS): 15.7 µM | TGI (SK-MEL-2 melanoma): 26.7 µM | TGI (SK-MEL-28 melanoma): 26.9 µM | TGI (SK-MEL-5 melanoma): 28.3 µM | TGI (SK-OV-3 ovarian): 35.6 µM | TGI (SN12C renal): 28.9 µM | TGI (SNB-19 CNS): 27.9 µM | TGI (SNB-75 CNS): 46.5 µM | TGI (SR leukemia): 64.9 µM | TGI (SW-620 colon): 22 µM | TGI (T-47D breast): 53.2 µM | TGI (TK-10 renal): 30.6 µM | TGI (U251 CNS): 17.5 µM | TGI (UACC-257 melanoma): 26.4 µM | TGI (UACC-62 melanoma): 34.4 µM | TGI (UO-31 renal): 10.2 µM

CCCCCCCCCCCCCCCCCCNc1ccn(C2OC(CO)C(OP(=O)(O)OCC(COP(=O)(O)OCC3OC(n4cc(F)c(NCCCCCCCCCCCCCCCCCC)nc4=O)CC3O)OC(=O)CCCCCCCCCCCCCCC)C2O)c(=O)n1 (stereo not drawn)
TGI (786-0 renal): > 100 µM | TGI (A498 renal): > 100 µM | TGI (A549 NSCLC): > 100 µM | TGI (ACHN renal): > 100 µM | TGI (BT-549 breast): > 100 µM | TGI (CAKI-1 renal): > 100 µM | TGI (CCRF-CEM leukemia): > 100 µM | TGI (COLO 205 colon): > 100 µM | TGI (DU-145 prostate): > 100 µM | TGI (EKVX NSCLC): > 100 µM | TGI (HCC-2998 colon): > 100 µM | TGI (HCT-116 colon): > 100 µM | TGI (HCT-15 colon): > 100 µM | TGI (HL-60(TB) leukemia): > 100 µM | TGI (HOP-62 NSCLC): > 100 µM | TGI (HOP-92 NSCLC): > 100 µM | TGI (HS 578T breast): > 100 µM | TGI (HT29 colon): > 100 µM | TGI (IGROV1 ovarian): > 100 µM | TGI (K-562 leukemia): > 100 µM | TGI (KM12 colon): > 100 µM | TGI (LOX IMVI melanoma): > 100 µM | TGI (M14 melanoma): > 100 µM | TGI (MALME-3M melanoma): > 100 µM | TGI (MCF7 breast): > 100 µM | TGI (MDA-MB-231 breast): > 100 µM | TGI (MDA-MB-435): > 100 µM | TGI (MDA-N): > 100 µM | TGI (MOLT-4 leukemia): > 100 µM | TGI (NCI-H226 lung): > 100 µM | TGI (NCI-H23 lung): > 100 µM | TGI (NCI-H460 lung): > 100 µM | TGI (NCI-H522 lung): > 100 µM | TGI (NCI/ADR-RES ovarian): > 100 µM | TGI (OVCAR-3 ovarian): > 100 µM | TGI (OVCAR-4 ovarian): > 100 µM | TGI (OVCAR-5 ovarian): > 100 µM | TGI (OVCAR-8 ovarian): > 100 µM | TGI (PC-3 prostate): > 100 µM | TGI (RPMI-8226 leukemia): > 100 µM | TGI (RXF 393 renal): > 100 µM | TGI (SF-268 CNS): > 100 µM | TGI (SF-295 CNS): > 100 µM | TGI (SF-539 CNS): > 100 µM | TGI (SK-MEL-2 melanoma): > 100 µM | TGI (SK-MEL-28 melanoma): > 100 µM | TGI (SK-MEL-5 melanoma): > 100 µM | TGI (SK-OV-3 ovarian): > 100 µM | TGI (SN12C renal): > 100 µM | TGI (SNB-19 CNS): > 100 µM | TGI (SNB-75 CNS): > 100 µM | TGI (SR leukemia): > 100 µM | TGI (SW-620 colon): > 100 µM | TGI (T-47D breast): > 100 µM | TGI (TK-10 renal): > 100 µM | TGI (U251 CNS): > 100 µM | TGI (UACC-257 melanoma): > 100 µM | TGI (UACC-62 melanoma): > 100 µM | TGI (UO-31 renal): > 100 µM
